Assay: Human HepG2 cell viability assay in 384 well format
Assay type: toxicity, cell-based
Parameters: dose 125 nL, time 70.5 hour; cytotoxicity at 70.5 h: concentration not given beside the values
Details: HepG2 cells, read-out: Inhibition

Row | Structure (SMILES) | cytotoxicity at 70.5 h
1 | CCCC(=O)Nc1cccc([C@H]2C[C@@H](NC(C)=O)CCO2)c1 | -12.2%
2 | Cc1csc(CNc2cnn(CC(C)C)c2)n1 | 3.86%
3 | COc1ccc(CC(=O)N2CCCC(n3cccn3)C2)cc1F (configuration not stated) | -6.84%
4 | Cc1ncc(CNC(=O)NCc2c(F)cccc2OC(F)F)s1 | -0.321%
5 | COc1ccc2cc(C(=O)NCCNc3ccc(C)nn3)[nH]c2c1 | -5.63%
6 | CCOc1ccccc1C(=O)NCCc1ccoc1 | -13.5%
7 | Cc1ccc(NC2CCN(C(=O)c3ccc(C(N)=O)s3)CC2)nn1 | -5.83%
8 | CC(=O)NCCNC(=O)Nc1ccc(C)cc1OCc1ccccc1 | -1.2%
9 | CCCc1nc2c(c(C)c(C)n2Cc2ccncc2)c(N)c1CC | 53.6%
10 | CC(=O)C1(c2ccccc2)CCN(C(=O)CC2CNCCO2)CC1 (configuration not stated) | -31.5%
11 | COc1cccc(OC)c1CN1CC(=O)N(c2ccc(C)cc2)CC1C (configuration not stated) | 1.44%
12 | CCOCCc1nc(Cc2ccccc2)n[nH]1 | -14.4%
13 | COc1ccc(CN2CC(O)CN(C(=O)OCC(C)(C)C)CC2=O)cc1 (configuration not stated) | -2.24%
14 | CNC(=O)c1cn2cc(-c3cccc(Cl)c3)n(CC=C(C)C)c(=O)c2n1 | -5.75%
15 | O=C(NC1(c2nnn(CC3CCCO3)n2)CCCC1)c1ccccc1 (configuration not stated) | -4.54%
16 | Cc1nc(N(CCC(N)=O)Cc2ccccc2)c2nc(C)oc2n1 | 9.6%
17 | Cc1ccsc1C(=O)N1CCCN(Cc2cscn2)CC1 | -2.76%
18 | CCN(CC)C(=O)CN1CCCC1C(=O)N(C)C (configuration not stated) | -11.8%
19 | CCc1cc(N2CCC(n3cc(C(=O)NC4CC4)nn3)CC2)ncn1 | 12.5%
20 | O=C1NC2(CCN(Cc3ccsc3)CC2)CC1c1ccncc1 (configuration not stated) | -9.73%
21 | Cc1nc(COC[C@@H]2CC[C@H]3[C@H](CCN3c3ncccn3)O2)cs1 | -7.79%

Row | Structure (SMILES) | cytotoxicity at 70.5 h
22 | CCN(Cc1cccc2c1OCO2)C(=O)C(C)c1cccnc1 (configuration not stated) | 1.7%
23 | COc1cccc(CN2CC(O)CN(C(=O)C3CC3)CC2=O)c1OC (configuration not stated) | 4.25%
24 | O=C(NC[C@H]1CC[C@H](c2nnc(-c3cccnc3)o2)CC1)C1CC1 | 6.18%
25 | CC(c1ccccc1)n1c(SCC(=O)O)nnc1-c1ccn[nH]1 (configuration not stated) | -5.88%
26 | CCCS(=O)(=O)NC(=O)c1sc(C2CCCC2)nc1C | -3.78%
27 | CCN(CC)CCC(=O)N1CCc2c(nc(N(C)C)nc2N(C)C)C1 | 29.3%
28 | Cc1nc(C2CCCN2CCc2cccs2)no1 (configuration not stated) | -10.4%
29 | O=C(c1ccn(-c2ccccc2)n1)N1CCCC(n2cccn2)C1 (configuration not stated) | -0.6%
30 | Cc1nn(-c2ccccn2)c2c1C(c1cnn(C)c1)SCC(=O)N2 (configuration not stated) | -27.3%
31 | CC(C)N(CC(N)=O)Cc1csc(C(C)(C)C)n1 | 3.87%
32 | COCCCNC(=O)C(C)(C)N(C)C1CCCC1 | -0.184%
33 | Cc1cc(C)c(CNC(=O)N2CCN(c3nccs3)CC2)c(=O)[nH]1 | 14.3%
34 | O=C(CCNc1ncccn1)NCc1csc(Br)c1 | 11.5%
35 | COCCNc1nc2c(c(NCc3ccncc3)n1)CCNCC2 | -7.33%
36 | CC(C)(CO)Nc1c(NCc2ccccn2)c(=O)c1=O | -8.21%
37 | Oc1nc(N2CCCC2)nc2nccc(-c3ccccn3)c12 | -22.4%
38 | CNS(=O)(=O)CC(=O)NC(c1cc(C)sc1C)C(C)C (configuration not stated) | 2.55%
39 | O=C1CN(C(=O)CNC(CC(F)(F)F)c2ccc(F)cc2)CCN1 (configuration not stated) | -55.7%
40 | Cc1noc(CNC2CCCN(Cc3noc(C4CC4)n3)C2)n1 (configuration not stated) | -2.29%
41 | CC(C)NC(=O)C1CN(C(=O)CCc2ccccc2)CC12CCOCC2 (configuration not stated) | 44.3%
42 | O=C(N[C@H]1CC[C@H](O)CC1)c1ccc2nc(-c3ccccc3)cn2c1 | -7.18%

Row | Structure (SMILES) | cytotoxicity at 70.5 h
43 | OCCN(Cc1ccncc1)CC1(c2ccc(Cl)cc2)CC1 | -4.99%
44 | COCC(=O)N1C[C@@H](CN2CCCN(C)CC2)[C@@H](CO)C1 | -4.72%
45 | CCc1cc(N[C@@H](CC(C)C)C(N)=O)n2nc(C)c(C)c2n1 | -8.65%
46 | Cc1ccc(OCC2CCCN(C(=O)CN3CCOCC3)C2)cc1 (configuration not stated) | 2.89%
47 | Cc1cc(C(=O)N(C)CC(F)(F)C(F)(F)F)ccc1-n1cncn1 | 2.03%
48 | c1ccc(CCN2CCCC(c3ccnc4nccn34)C2)cc1 (configuration not stated) | -1.37%
49 | CN1CC(=O)N(c2ccsc2)CC12CCN(C(=O)c1ccc[nH]1)C2 (configuration not stated) | 8.85%
50 | CCN1CCN(c2ncc3c(n2)CN(c2cnn(CC)c2)C3=O)CC1 | -6.35%
51 | CN(Cc1cnccn1)c1cncc(Br)c1 | -22%
52 | Cc1cc(CN2CCN(Cc3ccccc3F)CC2)no1 | 6.67%
53 | COc1ccc2c(c1)[C@@H](CCNC(C)=O)CC(C)(C)O2 | -1.01%
54 | CC(C)CCNC(=O)c1sccc1N(C)S(=O)(=O)c1ccccc1 | 33.2%
55 | CCN(CC)Cc1nc(Cc2cccc(C(F)(F)F)c2)no1 | -7.89%
56 | O=C1C[C@H]2CC[C@@H](CN1)N2C(=O)CCc1ccccc1 | -8.36%
57 | CC(C)Nc1cc(N2CCC(n3cc(C4CC4)nn3)CC2)ncn1 | 23.9%
58 | CC(=O)Nc1nc(C(=O)NC(C)c2ccc(F)c(F)c2)cs1 (configuration not stated) | -7.42%
59 | Cc1ccnn1-c1ccc(C(=O)N2CCN(c3cnccn3)CC2)cc1 | -0.832%
60 | Cc1nn(C)c(N(C)C)c1CNCc1cccnc1N(C)C | 23.9%
61 | CN1[C@@H](c2ccccc2)[C@@H](C(=O)NCc2ccccn2)C[C@@]1(C)C(=O)O | 23%
62 | Cc1cccc(CN2CCN3C[C@H](Oc4cccnc4)C[C@H]3C2)n1 | -1.7%
63 | Cc1noc(OCc2csc(C)n2)n1 | -3.72%

Row | Structure (SMILES) | cytotoxicity at 70.5 h
64 | CN1CC2(CCCN(Cc3nnc(-c4cccc(F)c4)o3)C2)OC1=O (configuration not stated) | -5.83%
65 | CC(C)CC1SCC(=O)Nc2c1cnn2C1CCCC1 (configuration not stated) | -18.7%
66 | CN1CCN(C(=O)C2CCCc3[nH]ncc32)CC1 (configuration not stated) | -1.9%
67 | O=C(Nc1cnn(CC(=O)N2CCCO2)c1)c1ccccc1 | 8.2%
68 | CC(C#N)CN(C)Cc1ccc(Cl)c2cccnc12 (configuration not stated) | -3.13%
69 | CC(C)Cc1nnc2sc(-c3cc(C(C)C)n[nH]3)nn12 | 12.3%
70 | Cc1ccc(CC(=O)N2CCCn3nnc(Cn4cccn4)c3C2)cc1 | -9.04%
71 | Fc1ccc(OCCCN2CC(n3cccn3)C2)cc1 | -8.19%
72 | N#Cc1ccc(SCCC(=O)NC(N)=O)cc1 | -12.4%
73 | O=C(N1CCCC1)N1Cc2nccn2CC(CN2CCCC2)C1 (configuration not stated) | -8.56%
74 | O=C(NCCNc1ccc(C(F)(F)F)cn1)c1ccc(Br)cc1 | 1.55%
75 | CC1N(c2cnn(C)c2)C(=O)COC12CCN(Cc1ccoc1)CC2 (configuration not stated) | 2.62%
76 | Cc1nc(COc2nc(C(C)C)no2)cs1 | -5.35%
77 | CCNc1cc2c(nn1)CCN(C(=O)c1cc3ccccc3[nH]c1=O)C2 | -12.3%
78 | CCOC(=O)N1CCN(C(=O)c2cc(-c3ccc(Cl)cc3Cl)on2)CC1 | 0.435%
79 | Fc1ccc(-c2nnc(CN3CCCC3Cn3cccn3)o2)cc1 (configuration not stated) | -19.8%
80 | O=C1CCC(c2ccccc2)=NN1CN1CCCCCC1 | -14%
81 | Cc1ccc(C(=O)NCCCN(C(C)C)S(C)(=O)=O)c(=O)[nH]1 | -5.61%
82 | OC1(c2cn(C3CCN(C4CCSC4)CC3)nn2)CCCC1 (configuration not stated) | -4.72%

— ChEMBL document CHEMBL3507680, “University of Dundee, Gates Library screen for HepG2 cell viability”
